Read-outs that look alike come from different tables or passages of the source.

The conditions of data set [1]: rat brain microdialysis, HPLC/UV; cited from earlier work.
Data set [2] has as its target T1, paraoxon-hAChE (Homo sapiens, UniProt P22303). The format is biochemical.
For data set [3], the target named is T1, paraoxon-hAChE. To be noted: cited from earlier work.

T1 sequence (P22303 32-574): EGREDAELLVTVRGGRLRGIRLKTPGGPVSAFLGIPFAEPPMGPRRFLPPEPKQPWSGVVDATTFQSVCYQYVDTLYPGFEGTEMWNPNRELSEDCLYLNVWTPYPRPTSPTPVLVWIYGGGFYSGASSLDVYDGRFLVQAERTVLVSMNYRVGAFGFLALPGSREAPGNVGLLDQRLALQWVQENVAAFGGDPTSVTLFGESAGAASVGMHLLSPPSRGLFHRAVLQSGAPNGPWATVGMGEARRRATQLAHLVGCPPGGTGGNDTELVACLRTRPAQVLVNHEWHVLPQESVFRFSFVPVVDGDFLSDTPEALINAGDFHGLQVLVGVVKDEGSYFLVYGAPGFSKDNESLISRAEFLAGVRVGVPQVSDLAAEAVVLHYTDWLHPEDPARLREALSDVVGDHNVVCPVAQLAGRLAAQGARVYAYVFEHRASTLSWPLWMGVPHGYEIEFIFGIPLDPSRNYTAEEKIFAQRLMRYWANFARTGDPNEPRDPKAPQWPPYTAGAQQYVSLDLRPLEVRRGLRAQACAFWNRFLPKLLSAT

With `C[n+]1ccccc1/C=N/O` [Compound 2-PAM], in data set [1], the BBB penetration is listed as 10%.

As for `ON=Cc1nccc(CCCCCNc2c3c(nc4ccccc24)CCCC3)c1O` [Compound 10, 2-[(hydroxyimino)methyl]-4-{5-[(1,2,3,4-tetrahydroacridin-9-yl)amino]pentyl}pyridin-3-ol], the “reactivation of paraoxon inhibited hAChE” value on paraoxon-hAChE [2] is listed as “no reactivation”.

With `O/N=C/c1nc(CCCCCNc2c3c(nc4ccccc24)CCCC3)ccc1O` [Compound 11, 2-[(1E)-(hydroxyimino)methyl]-6-{5-[(1,2,3,4-tetrahydroacridin-9-yl)amino]pentyl}pyridin-3-ol], at paraoxon-hAChE [2], the kr was 0.0228 ± 0.0006 min⁻¹ and the kr2 was 348 M⁻¹ s⁻¹.

In the case of `ON=Cc1nc(CCCCNc2c3c(nc4ccccc24)CCCC3)ccc1O` [Compound 12, 2-[1-(hydroxyimino)methyl]-6-{4-[(1,2,3,4-tetrahydroacridin-9-yl)amino]butyl}pyridin-3-ol], on paraoxon-hAChE [2], the kr worked out at 0.111 ± 0.002 min⁻¹ and the kr2 was found to be 517 M⁻¹ s⁻¹.

On paraoxon-hAChE [2], `ON=Cc1nc(CCCCNc2c3c(nc4ccc(Cl)cc24)CCCC3)ccc1O` [Compound 15, 6-(4-((7-Chloro-1,2,3,4-tetrahydroacridin-9-yl)amino)butyl)-3-hydroxy-picolin-aldehyde oxime] showed a kr of 0.11 ± 0.01 min⁻¹ and a kr2 of 317 M⁻¹ s⁻¹.

Turning to `ON=Cc1cc[n+](CCC[n+]2ccc(/C=N/O)cc2)cc1` [Trimedoxime], on paraoxon-hAChE [3], the kr is 0.34 ± 0.02 ^a min^−1 and the kr2 is 17 ^a mM^−1min^−1.

The values above are taken from patent publication US20160272620A1 (priority 2013, published 2016).
